Experimental data taken from publication PMC7216583 (Parasites & Vectors, 2020).
Like-named read-outs stand apart in the source and are kept apart here.

Columns and labels:
[1] = system: Toxoplasma gondii RH-2F tachyzoites; settings: for effect on T. gondii growth in the screen: 5 μM, 72 h
[2] = system: Toxoplasma gondii RH-2F tachyzoites; assay: microbe, parasite or virus in culture; settings: 72 h; for inhibition at 5 µM: read-out: Parasite inhibition (%) Mean ± SD; for inhibition of growth at 5 µM: read-out: Parasite inhibition (%) mean, preliminary screen of compound library, mean
in vitro = settings: human
mTOR = system: mTOR; parameters: method as in S-inhibitor catalog; settings: vendor brief description; ref S-inhibitor catalog; cited from earlier work
[3] = preliminary screen of compound library, mean

Question: With `CC(C)Cc1ccc(C(C)C(=O)O)cc1.NCCCC[C@H](N)C(=O)O` (stereo not shown) [Ibuprofen Lysine (NeoProfen)] as the compound, how does the “Parasite inhibition (%) mean” value ([1]; preliminary screen, mean) read?
Answer: -1.6%

Question: Which results are given for `Cc1[nH]c(/C=C2\C(=O)Nc3ccc(S(=O)(=O)Cc4c(Cl)cccc4Cl)cc32)c(C)c1C(=O)N1CCC[C@@H]1CN1CCCC1` [PHA-665752, reference compound]?
Answer: effect on T. gondii growth in the screen [1]: significantly inhibited T. gondii growth; inhibition at 5 µM [2]: 92.3 ± 3.1%; viability at 72 h, 5 µM (in vitro; Host viability (%) Mean ± SD): 80.5 ± 1.3%; viability at 72 h (in vitro; Host viability (%) mean): 80.5%

Question: For `CNC(=O)Nc1ccc(-c2nc(N3CC4CCC(C3)O4)c3cnn(C4CCC5(CC4)OCCO5)c3n2)cc1` [WYE-125132], which inhibition of growth at 5 µM [2] is on record?
Answer: 44.4%

Question: And the IC50 (mTOR)?
Answer: 0.19 nM

Question: What does the source list for `COC(=O)Nc1ccc(-c2nc(N3CCOCC3)c3cnn(C4CCN(Cc5cccnc5)CC4)c3n2)cc1` [WYE-687]?
Answer: inhibition of growth at 5 µM [2]: 28.7%; IC50 (mTOR): 7 nM

Question: What does the source list for `CS(=O)(=O)N1CCc2c(-c3cnc(N)nc3)nc(N3CCOCC3)nc21` [CH5132799]?
Answer: inhibition of growth at 5 µM [2]: 48.9%; IC50 (mTOR): 1600 nM

Question: For `Cl.N=C(N)N` [Guanidine HCl], which “Parasite inhibition (%) mean” value [1, 3] is on record?
Answer: -3.4%

Question: Which “Parasite inhibition (%) mean” value [1, 3] does the source give for `CNC(=O)CN(CCN(CCN(CC(=O)[O-])CC(=O)NC)CC(=O)[O-])CC(=O)[O-].O.[Gd+3]` [Gadodiamide (Omniscan)] here?
Answer: -0.2%

Question: For `N#CC(=C(/N)Sc1ccccc1N)/C(C#N)=C(/N)Sc1ccccc1N` [U0126, reference compound], which “effect on T. gondii growth in the screen” value [1] is on record?
Answer: no effect on T. gondii growth

Question: Which “effect on T. gondii growth in the screen” value [1] does the source give for `Cc1cc(C)c(/C=C2\C(=O)Nc3ccccc32)[nH]1` [semaxanib, reference compound] here?
Answer: no effect on T. gondii growth

Question: For Biapenem, which “Parasite inhibition (%) mean” value [1, 3] is on record?
Answer: 5.8%

Question: With `Cl.NC(=O)c1cnc(N[C@@H]2CCCC[C@@H]2N)nc1Nc1cccc(-n2nccn2)c1` [PRT062607 HCl] as the compound, how does the “Parasite inhibition (%) mean” value [1, 3] read?
Answer: 17.8%

Question: With `COC(=O)N[C@H](C(=O)N[C@@H](Cc1ccccc1)[C@@H](O)CN(Cc1ccc(-c2ccccn2)cc1)NC(=O)[C@@H](NC(=O)OC)C(C)(C)C)C(C)(C)C` [Atazanavir, reference compound] as the compound, how does the “effect on T. gondii growth in the screen” value [1] read?
Answer: significantly inhibited T. gondii growth

Question: What about the inhibition at 5 µM [2] of the same compound?
Answer: 93.6 ± 2.1%

Question: And the viability at 72 h, 5 µM (in vitro; Host viability (%) Mean ± SD)?
Answer: 90.7 ± 2.8%

Question: For `CC(O)C(=O)O.CC(O)C(=O)O.CN1CCN(c2ccc3nc(-c4c(N)c5c(F)cccc5[nH]c4=O)[nH]c3c2)CC1` [Dovitinib Dilactic acid], which “Parasite inhibition (%) mean” value [1, 3] is on record?
Answer: 18.2%

Question: With `N[C@@H]1CN(c2c(F)cc3c(=O)c(C(=O)O)cn([C@@H]4C[C@@H]4F)c3c2Cl)CC12CC2.O` [Sitafloxacin hydrate] as the compound, how does the “Parasite inhibition (%) mean” value [1, 3] read?
Answer: 53.1%

Question: Which “Parasite inhibition (%) mean” value [1, 3] does the source give for `[I-].[K+]` [Potassium iodide] here?
Answer: 10.2%

Question: With `O=S(=O)(F)Cc1ccccc1` [PMSF (Phenylmethylsulfonyl Fluoride)] as the compound, how does the “Parasite inhibition (%) mean” value [1, 3] read?
Answer: 0.8%

Question: Which “Parasite inhibition (%) mean” value [1] does the source give for `CN[C@H](CC(C)C)C(=O)N[C@H]1C(=O)N[C@@H](CC(N)=O)C(=O)N[C@H]2C(=O)N[C@H]3C(=O)N[C@@H](C(=O)N[C@H](C(=O)O)c4cc(O)cc(O)c4-c4cc3ccc4O)[C@H](O)c3ccc(c(Cl)c3)Oc3cc2cc(c3O[C@H]2O[C@H](CO)[C@@H](O)[C@H](O)[C@H]2O[C@H]2C[C@@](C)(N)[C@H](O)[C@H](C)O2)Oc2ccc(cc2Cl)[C@H]1O.Cl` [Vancomycin HCl (Vancocin)] here?
Answer: 0.8%

Question: With `CC1(C)CCC(CN2CCN(c3ccc(C(=O)NS(=O)(=O)c4ccc(NCC5CCOCC5)c([N+](=O)[O-])c4)c(Oc4cnc5[nH]ccc5c4)c3)CC2)=C(c2ccc(Cl)cc2)C1` [ABT-199 (GDC-0199 )] as the compound, how does the inhibition of growth at 5 µM [2] read?
Answer: 70.8%

Question: What about the viability at 72 h (in vitro; Host viability (%) mean) of the same compound?
Answer: 25.4%

Question: For Ulipristal, which “Parasite inhibition (%) mean” value [1, 3] is on record?
Answer: -0.7%

Question: Which inhibition at 5 µM [2] does the source give for `Nc1ccccc1NC(=O)c1ccc(CNc2nccc(-c3cccnc3)n2)cc1` [Mocetinostat, reference compound] here?
Answer: 86.5 ± 3.1%

Question: What about the viability at 72 h, 5 µM (in vitro; Host viability (%) Mean ± SD) of the same compound?
Answer: 80.2 ± 3.8%

Question: Which inhibition at 5 µM [2] does the source give for `NCCC(O)(P(=O)(O)O)P(=O)(O)O` [Pamidronate disodium, reference compound] here?
Answer: 79.6 ± 1.5%

Question: And the viability at 72 h (in vitro)?
Answer: 80.8%

Question: What about the viability at 72 h, 5 µM (in vitro) of the same compound?
Answer: 80.8 ± 1.4%

Question: Which “Parasite inhibition (%) mean” value ([1]; preliminary screen, mean) does the source give for `COc1cc(Nc2ncc(F)c(Nc3ccc4c(n3)N(COP(=O)(O)O)C(=O)C(C)(C)O4)n2)cc(OC)c1OC` [R935788] here?
Answer: 28.5%
